Measurements as given in US20090197944A1, “AGENT FOR IMPROVING MUSCLE FORCE” (KAO CORPORATION, priority 2006, published 2009).

Test system: isolated soleus muscle
Test: Electrical stimulation of isolated muscle (fatigue resistance)
Assay type: ex vivo tissue, mice
Settings: 50 μM in Krebs solution, 37° C., equilibrated three minutes, stimulation 330 ms/2-sec, 40 Hz; vs control solution
Experimental: Mice were bred in a similar manner to that for the control group of Test Example 1. Thereafter, soleus muscle was removed from each mouse. The isolated soleus muscle was fixed to a transducer (FORT100, product of WPI) in 37° C. Krebs solution (aeration: 95%-oxygen, 5%-carbon dioxide). The effect of catechins on the isolated muscle was analyzed. Specifically, each of eight catechin species (catechin, epicatechin, gallocatechin, epigallocatechin, catechin gallate, epicatechin gallate, gallocatechin gallate, and epigallocatechin gallate) was dissolved in a Krebs solution to a concentration of 50 μM. Each muscle piece was equilibrated in each solution for three minutes, and electrically stimulated (330 ms/2-sec). The frequency of stimulation was 40 Hz. […] A Krebs solution to which no catechin species had been added was employed as a control solution.

Row | Compound | muscle force after 1 minute stimulation as fatigue index (ratio to muscle force at the start of electrical stimulation defined as 1)
1 | O=C(O[C@@H]1Cc2c(O)cc(O)cc2O[C@@H]1c1ccc(O)c(O)c1)c1cc(O)c(O)c(O)c1 [epicatechin gallate] | improved muscle fatigue resistance
2 | O=C(O[C@@H]1Cc2c(O)cc(O)cc2O[C@@H]1c1cc(O)c(O)c(O)c1)c1cc(O)c(O)c(O)c1 [epigallocatechin gallate] | improved muscle fatigue resistance
3 | O=C(O[C@@H]1Cc2c(O)cc(O)cc2O[C@H]1c1cc(O)c(O)c(O)c1)c1cc(O)c(O)c(O)c1 [gallocatechin gallate] | improved muscle fatigue resistance
